Experimental data reported in ChEMBL document CHEMBL5096238 (J Med Chem, 2022).

Columns and labels:
[1] = AUC(0 to t) in Sprague-Dawley rat at 10 mg/kg, ip measured for 24 hrs by LC-MS/MS analysis; assay type: ADME, organism-based; design: dose 10 mg/kg, time 24 hrs, route ip; settings: in vivo
[2] = AUC(0 to t) in Sprague-Dawley rat at 10 mg/kg, po measured for 24 hrs by LC-MS/MS analysis; assay type: ADME, organism-based; design: time 24 hrs, dose 10 mg/kg, route po; settings: in vivo
[3] = AUC(0 to t) in Sprague-Dawley rat at 2 mg/kg, iv measured for 24 hrs by LC-MS/MS analysis; assay type: ADME, organism-based; design: time 24 hrs, dose 2 mg/kg, route iv; settings: in vivo
[4] = biological target: T1, Hepatocyte growth factor receptor (Homo sapiens, UniProt P08581); assay: Inhibition of N-terminal His/SUMO tagged wild type human c-Met (1038 to 1346 residues) transfected in Escherichia coli using Tyr06 peptide as substrate incubated for 1 hr in presence of ATP by FRET-based Z'-Lyte assay
[5] = biological target: T2, Tyrosine-protein kinase receptor UFO (Homo sapiens, UniProt P30530); assay: Inhibition of AXL (unknown origin)
T2 sequence (P30530 whole entry): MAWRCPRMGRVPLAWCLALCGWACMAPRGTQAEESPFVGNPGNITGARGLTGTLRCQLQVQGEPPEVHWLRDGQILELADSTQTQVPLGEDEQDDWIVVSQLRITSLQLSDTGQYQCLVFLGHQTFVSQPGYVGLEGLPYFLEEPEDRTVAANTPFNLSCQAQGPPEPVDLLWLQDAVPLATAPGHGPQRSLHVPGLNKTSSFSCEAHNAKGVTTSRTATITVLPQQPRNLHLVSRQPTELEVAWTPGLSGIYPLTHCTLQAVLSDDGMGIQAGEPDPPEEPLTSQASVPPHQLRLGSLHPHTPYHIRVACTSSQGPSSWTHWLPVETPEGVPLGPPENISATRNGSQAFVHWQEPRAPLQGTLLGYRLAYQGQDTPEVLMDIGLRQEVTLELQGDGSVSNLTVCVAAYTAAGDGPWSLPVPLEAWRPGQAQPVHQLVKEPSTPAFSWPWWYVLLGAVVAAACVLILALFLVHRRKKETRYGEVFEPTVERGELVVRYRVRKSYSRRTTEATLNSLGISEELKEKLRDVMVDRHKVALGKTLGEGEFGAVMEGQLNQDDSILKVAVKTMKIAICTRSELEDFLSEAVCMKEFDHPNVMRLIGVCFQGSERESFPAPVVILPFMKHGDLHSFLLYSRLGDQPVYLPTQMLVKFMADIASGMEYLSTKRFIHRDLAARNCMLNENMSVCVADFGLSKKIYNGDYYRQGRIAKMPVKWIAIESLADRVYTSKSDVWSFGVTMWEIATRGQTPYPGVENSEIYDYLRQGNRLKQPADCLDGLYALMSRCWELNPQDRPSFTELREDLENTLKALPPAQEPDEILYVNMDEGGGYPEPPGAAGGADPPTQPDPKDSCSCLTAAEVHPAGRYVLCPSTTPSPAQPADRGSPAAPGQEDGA

[6] = Apparent permeability across apical to basolateral side in human Caco-2 cells at 10 uM incubated for 120 mins by LC-MS/MS analysis; assay type: ADME, cell-based
BaF3 [7] = assay: Induction of apoptosis in mouse BaF3 cells harboring wild type Tpr-Met fusion protein assessed as viable cells at 10 nM incubated for 48 hrs by Annexin V/7-AAD staining based flow cytometry analysis (reference value: 89.76%); assay type: functional; settings: read-out: Activity
BaF3 [8] = assay: Induction of apoptosis in mouse BaF3 cells harboring wild type Tpr-Met fusion protein assessed as viable cells at 20 nM incubated for 48 hrs by Annexin V/7-AAD staining based flow cytometry analysis (reference value: 89.76%); assay type: functional; settings: read-out: Activity
BaF3 [9] = assay: Induction of apoptosis in mouse BaF3 cells harboring wild type Tpr-Met fusion protein assessed as viable cells at 40 nM incubated for 48 hrs by Annexin V/7-AAD staining based flow cytometry analysis (reference value: 89.76%); assay type: functional; settings: read-out: Activity
[10] = Half life in Sprague-Dawley rat at 2 mg/kg, iv measured for 24 hrs by LC-MS/MS analysis; assay type: ADME, organism-based; settings: in vivo
[11] = Half life in Sprague-Dawley rat at 10 mg/kg, po measured for 24 hrs by LC-MS/MS analysis; assay type: ADME, organism-based; settings: in vivo
[12] = Half life in Sprague-Dawley rat at 10 mg/kg, ip measured for 24 hrs by LC-MS/MS analysis; assay type: ADME, organism-based; settings: in vivo
[13] = Tmax in Sprague-Dawley rat at 2 mg/kg, iv measured for 24 hrs by LC-MS/MS analysis; assay type: ADME, organism-based; settings: in vivo
[14] = Tmax in Sprague-Dawley rat at 10 mg/kg, po measured for 24 hrs by LC-MS/MS analysis; assay type: ADME, organism-based; settings: in vivo
[15] = Tmax in Sprague-Dawley rat at 10 mg/kg, ip measured for 24 hrs by LC-MS/MS analysis; assay type: ADME, organism-based; settings: in vivo
[16] = Cmax in Sprague-Dawley rat at 2 mg/kg, iv measured for 24 hrs by LC-MS/MS analysis; assay type: ADME, organism-based; design: dose 2 mg/kg, time 24 hrs, route iv; settings: in vivo
[17] = Cmax in Sprague-Dawley rat at 10 mg/kg, po measured for 24 hrs by LC-MS/MS analysis; assay type: ADME, organism-based; design: dose 10 mg/kg, time 24 hrs, route po; settings: in vivo
[18] = Cmax in Sprague-Dawley rat at 10 mg/kg, ip measured for 24 hrs by LC-MS/MS analysis; assay type: ADME, organism-based; design: time 24 hrs, dose 10 mg/kg, route ip; settings: in vivo
[19] = Apparent volume of distribution in Sprague-Dawley rat at 2 mg/kg, iv measured for 24 hrs by LC-MS/MS analysis; assay type: ADME, organism-based; settings: in vivo, read-out: Vz
[20] = Clearance in Sprague-Dawley rat at 2 mg/kg, iv measured for 24 hrs by LC-MS/MS analysis; assay type: ADME, organism-based; settings: in vivo
[21] = MRT (0 to t) in Sprague-Dawley rat at 2 mg/kg, iv measured for 24 hrs by LC-MS/MS analysis; assay type: ADME, organism-based; settings: in vivo
[22] = MRT (0 to t) in Sprague-Dawley rat at 10 mg/kg, po measured for 24 hrs by LC-MS/MS analysis; assay type: ADME, organism-based; settings: in vivo
[23] = MRT (0 to t) in Sprague-Dawley rat at 10 mg/kg, ip measured for 24 hrs by LC-MS/MS analysis; assay type: ADME, organism-based; settings: in vivo
[24] = Oral bioavailability in Sprague-Dawley rat at 10 mg/kg measured for 24 hrs by LC-MS/MS analysis; assay type: ADME, organism-based; settings: in vivo
[25] = Bioavailability in Sprague-Dawley rat at 10 mg/kg, ip measured for 24 hrs by LC-MS/MS analysis; assay type: ADME, organism-based; settings: in vivo
Cytochrome P450 2C9 = Cytochrome P450 2C9 (Homo sapiens, UniProt P11712); assay: Inhibition of CYP2C9 (unknown origin) in microsomes preincubated for 5 mins followed by NADPH addition by LC-MS/MS analysis; assay type: ADME, Microsome
Cytochrome P450 2D6 = Cytochrome P450 2D6 (Homo sapiens, UniProt P10635); assay: Inhibition of CYP2D6 (unknown origin) in microsomes preincubated for 5 mins followed by NADPH addition by LC-MS/MS analysis; assay type: ADME, Microsome
Cytochrome P450 3A4 = Cytochrome P450 3A4 (Homo sapiens, UniProt P08684); assay: Inhibition of CYP3A4 (unknown origin) in microsomes sing testosterone as a substrate preincubated for 5 mins followed by NADPH addition by LC-MS/MS analysis; assay type: ADME, Microsome
[26] = biological target: Voltage-gated inwardly rectifying potassium channel KCNH2 (Homo sapiens, UniProt Q12809); assay: Inhibition of hERG expressed in HEK293 cells by whole-cell patch clamp technique; assay type: toxicity, cell-based
[27] = biological target: Hepatocyte growth factor receptor (Mus musculus) (UniProt P16056); settings: BaF3, dose 1.1-30 nM, time 12.0 hrs
[28] = biological target: T1, Hepatocyte growth factor receptor; settings: Hs746T, dose 1.1-30 nM, time 12.0 hrs

T1 sequence (P08581 whole entry, the tested form may be a part): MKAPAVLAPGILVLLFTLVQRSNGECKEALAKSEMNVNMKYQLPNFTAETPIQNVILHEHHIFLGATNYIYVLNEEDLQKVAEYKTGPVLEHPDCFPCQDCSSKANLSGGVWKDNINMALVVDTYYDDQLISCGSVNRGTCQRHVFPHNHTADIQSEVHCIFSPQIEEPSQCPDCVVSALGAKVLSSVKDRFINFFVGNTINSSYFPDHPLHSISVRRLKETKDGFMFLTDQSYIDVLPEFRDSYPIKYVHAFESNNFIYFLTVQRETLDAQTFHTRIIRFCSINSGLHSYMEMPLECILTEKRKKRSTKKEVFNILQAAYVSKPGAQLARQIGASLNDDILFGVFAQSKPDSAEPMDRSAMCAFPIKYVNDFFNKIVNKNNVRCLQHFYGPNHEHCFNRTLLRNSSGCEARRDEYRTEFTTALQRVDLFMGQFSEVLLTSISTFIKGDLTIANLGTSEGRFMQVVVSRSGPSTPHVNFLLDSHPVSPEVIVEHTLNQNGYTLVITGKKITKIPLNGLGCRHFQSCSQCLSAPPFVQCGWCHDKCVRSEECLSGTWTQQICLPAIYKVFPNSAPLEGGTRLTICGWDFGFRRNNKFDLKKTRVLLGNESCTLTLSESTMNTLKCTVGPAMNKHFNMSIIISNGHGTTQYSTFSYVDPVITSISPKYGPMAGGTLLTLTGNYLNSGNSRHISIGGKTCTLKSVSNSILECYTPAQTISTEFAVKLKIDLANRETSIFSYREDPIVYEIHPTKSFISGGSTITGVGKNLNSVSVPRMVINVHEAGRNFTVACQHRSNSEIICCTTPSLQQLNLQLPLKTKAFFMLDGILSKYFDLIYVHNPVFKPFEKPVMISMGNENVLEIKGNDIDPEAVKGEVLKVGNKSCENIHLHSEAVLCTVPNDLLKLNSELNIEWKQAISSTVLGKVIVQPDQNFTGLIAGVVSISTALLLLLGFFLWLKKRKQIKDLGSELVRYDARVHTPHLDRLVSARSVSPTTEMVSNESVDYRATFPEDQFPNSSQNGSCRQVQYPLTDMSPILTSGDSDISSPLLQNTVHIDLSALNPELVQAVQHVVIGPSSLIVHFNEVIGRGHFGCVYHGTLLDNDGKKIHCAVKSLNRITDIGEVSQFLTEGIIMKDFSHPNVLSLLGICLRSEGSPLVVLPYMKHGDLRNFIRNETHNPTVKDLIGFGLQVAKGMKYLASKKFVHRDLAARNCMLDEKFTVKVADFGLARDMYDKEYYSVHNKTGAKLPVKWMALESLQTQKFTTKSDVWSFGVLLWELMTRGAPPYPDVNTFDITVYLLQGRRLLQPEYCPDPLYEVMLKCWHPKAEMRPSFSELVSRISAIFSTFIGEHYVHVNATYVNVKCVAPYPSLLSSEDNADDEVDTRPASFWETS
Chain of Cytochrome P450 2D6 (P10635 whole entry): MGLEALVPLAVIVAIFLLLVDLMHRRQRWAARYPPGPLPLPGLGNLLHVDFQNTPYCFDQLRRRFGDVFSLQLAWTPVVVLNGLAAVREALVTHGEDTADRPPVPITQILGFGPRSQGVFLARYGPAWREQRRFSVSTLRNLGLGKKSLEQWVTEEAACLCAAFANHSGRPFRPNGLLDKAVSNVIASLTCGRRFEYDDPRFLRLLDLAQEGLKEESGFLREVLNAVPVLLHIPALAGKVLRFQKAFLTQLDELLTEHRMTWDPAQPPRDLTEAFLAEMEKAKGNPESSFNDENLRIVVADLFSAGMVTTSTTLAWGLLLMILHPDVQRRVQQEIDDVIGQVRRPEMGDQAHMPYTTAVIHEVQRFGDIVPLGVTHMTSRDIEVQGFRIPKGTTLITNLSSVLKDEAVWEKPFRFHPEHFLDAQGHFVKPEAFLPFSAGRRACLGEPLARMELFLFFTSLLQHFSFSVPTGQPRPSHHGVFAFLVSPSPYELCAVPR
Chain of Voltage-gated inwardly rectifying potassium channel KCNH2 (Q12809 whole entry): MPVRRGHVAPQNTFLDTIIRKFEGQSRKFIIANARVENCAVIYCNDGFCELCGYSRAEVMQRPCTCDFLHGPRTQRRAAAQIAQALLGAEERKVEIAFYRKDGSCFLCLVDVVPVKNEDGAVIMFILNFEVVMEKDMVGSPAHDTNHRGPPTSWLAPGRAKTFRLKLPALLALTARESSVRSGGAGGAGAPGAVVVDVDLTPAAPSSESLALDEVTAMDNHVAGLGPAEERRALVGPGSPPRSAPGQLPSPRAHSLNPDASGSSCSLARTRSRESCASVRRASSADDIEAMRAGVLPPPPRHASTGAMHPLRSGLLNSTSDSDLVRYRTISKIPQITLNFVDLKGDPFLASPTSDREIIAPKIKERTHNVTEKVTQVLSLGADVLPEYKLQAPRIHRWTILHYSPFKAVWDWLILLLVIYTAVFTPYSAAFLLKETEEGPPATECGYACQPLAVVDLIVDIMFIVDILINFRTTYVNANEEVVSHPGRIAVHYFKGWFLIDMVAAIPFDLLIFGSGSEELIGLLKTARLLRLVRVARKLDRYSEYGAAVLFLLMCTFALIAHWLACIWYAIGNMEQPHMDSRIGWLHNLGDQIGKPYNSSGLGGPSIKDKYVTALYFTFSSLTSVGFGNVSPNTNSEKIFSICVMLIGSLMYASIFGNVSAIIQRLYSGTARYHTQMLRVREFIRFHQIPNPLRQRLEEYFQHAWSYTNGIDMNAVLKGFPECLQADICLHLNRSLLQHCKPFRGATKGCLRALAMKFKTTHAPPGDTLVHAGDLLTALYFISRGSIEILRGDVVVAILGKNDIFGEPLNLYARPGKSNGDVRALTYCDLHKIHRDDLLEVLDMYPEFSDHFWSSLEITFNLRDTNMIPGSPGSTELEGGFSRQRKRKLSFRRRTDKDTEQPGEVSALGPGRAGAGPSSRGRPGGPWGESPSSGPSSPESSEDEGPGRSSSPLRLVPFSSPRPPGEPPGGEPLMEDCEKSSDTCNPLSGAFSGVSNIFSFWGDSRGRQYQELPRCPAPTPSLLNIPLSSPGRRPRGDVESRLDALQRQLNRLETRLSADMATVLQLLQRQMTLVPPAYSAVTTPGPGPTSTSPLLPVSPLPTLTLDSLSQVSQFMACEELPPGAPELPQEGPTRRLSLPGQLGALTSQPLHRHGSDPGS
Chain of Cytochrome P450 3A4 (P08684 whole entry): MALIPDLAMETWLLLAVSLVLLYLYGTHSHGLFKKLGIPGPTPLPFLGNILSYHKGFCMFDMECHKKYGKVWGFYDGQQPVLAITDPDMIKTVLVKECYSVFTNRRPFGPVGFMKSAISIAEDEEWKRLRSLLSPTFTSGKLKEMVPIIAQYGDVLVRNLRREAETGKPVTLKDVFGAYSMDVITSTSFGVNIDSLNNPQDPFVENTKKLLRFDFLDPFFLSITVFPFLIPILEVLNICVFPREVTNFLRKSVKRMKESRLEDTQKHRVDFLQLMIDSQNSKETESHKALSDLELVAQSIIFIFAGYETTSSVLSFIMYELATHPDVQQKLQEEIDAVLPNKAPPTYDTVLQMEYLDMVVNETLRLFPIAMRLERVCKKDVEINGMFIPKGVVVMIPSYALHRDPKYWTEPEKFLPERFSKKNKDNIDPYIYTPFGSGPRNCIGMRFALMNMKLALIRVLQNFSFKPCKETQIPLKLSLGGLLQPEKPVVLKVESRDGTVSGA
Chain of Hepatocyte growth factor receptor (Mus musculus) (P16056 whole entry): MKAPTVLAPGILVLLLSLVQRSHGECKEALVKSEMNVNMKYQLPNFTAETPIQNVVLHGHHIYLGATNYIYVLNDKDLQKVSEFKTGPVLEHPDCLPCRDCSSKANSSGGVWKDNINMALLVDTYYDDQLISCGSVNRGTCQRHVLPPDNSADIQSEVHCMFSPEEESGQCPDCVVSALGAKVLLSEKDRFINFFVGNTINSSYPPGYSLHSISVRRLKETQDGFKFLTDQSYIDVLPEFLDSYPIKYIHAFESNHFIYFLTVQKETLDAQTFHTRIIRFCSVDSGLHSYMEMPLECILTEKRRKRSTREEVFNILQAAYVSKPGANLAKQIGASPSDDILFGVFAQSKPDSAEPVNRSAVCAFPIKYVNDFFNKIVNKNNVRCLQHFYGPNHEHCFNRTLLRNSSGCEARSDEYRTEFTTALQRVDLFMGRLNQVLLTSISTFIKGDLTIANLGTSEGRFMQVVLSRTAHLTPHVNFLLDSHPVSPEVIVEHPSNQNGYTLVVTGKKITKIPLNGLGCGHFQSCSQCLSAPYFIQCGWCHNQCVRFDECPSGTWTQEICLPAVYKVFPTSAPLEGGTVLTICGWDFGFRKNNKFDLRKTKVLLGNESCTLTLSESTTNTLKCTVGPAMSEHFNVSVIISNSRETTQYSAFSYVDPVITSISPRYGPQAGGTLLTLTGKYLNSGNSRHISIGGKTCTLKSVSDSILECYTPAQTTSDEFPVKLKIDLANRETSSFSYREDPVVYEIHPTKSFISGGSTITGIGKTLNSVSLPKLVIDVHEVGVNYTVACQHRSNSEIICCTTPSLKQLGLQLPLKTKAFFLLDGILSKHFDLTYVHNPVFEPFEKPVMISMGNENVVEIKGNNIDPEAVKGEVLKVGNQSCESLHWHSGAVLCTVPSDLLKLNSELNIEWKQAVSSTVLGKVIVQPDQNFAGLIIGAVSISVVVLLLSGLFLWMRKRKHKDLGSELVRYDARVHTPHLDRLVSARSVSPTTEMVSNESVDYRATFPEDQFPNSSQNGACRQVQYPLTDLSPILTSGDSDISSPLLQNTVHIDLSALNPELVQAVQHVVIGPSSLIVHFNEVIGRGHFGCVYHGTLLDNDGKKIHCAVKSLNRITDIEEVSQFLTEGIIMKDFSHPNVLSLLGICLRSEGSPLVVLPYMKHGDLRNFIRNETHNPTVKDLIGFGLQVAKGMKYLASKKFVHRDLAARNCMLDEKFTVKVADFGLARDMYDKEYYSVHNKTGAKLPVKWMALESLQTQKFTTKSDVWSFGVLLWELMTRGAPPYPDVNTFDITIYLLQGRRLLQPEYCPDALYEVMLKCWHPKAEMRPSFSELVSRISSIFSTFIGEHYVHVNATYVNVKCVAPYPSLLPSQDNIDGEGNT

O=C1NCCCCn2cc(cn2)-c2cnc3ccc(cc3c2)CCn2nc(ccc2=O)-c2ccc1c(C(F)(F)F)c2
AUC(0-t) at 24 h [1]: 820 ng·h/mL
AUC(0-t) at 24 h [2]: 48.9 ng·h/mL
AUC(0-t) at 24 h [3]: 484 ng·h/mL
IC50 [4]: 0.0029 µM
IC50 [5]: 0.401 µM
Papp A→B at 2 h, 10 µM [6]: 0.53 ×10⁻⁶ cm/s
viability at 0.01 µM (BaF3 [7]): 87%
viability at 0.02 µM (BaF3 [8]): 75.4%
viability at 0.04 µM (BaF3 [9]): 42.9%
half-life [10]: 34.2 min
half-life [11]: 149 min
half-life [12]: 278 min
Tmax [13]: 4.8 min
Tmax [14]: 15 min
Tmax [15]: 15 min
Cmax [16]: 1070 ng/mL
Cmax [17]: 61 ng/mL
Cmax [18]: 282 ng/mL
Vd [19]: 3.47 L/kg
clearance [20]: 70.1 mL/min/kg
MRT last at 24 h [21]: 21.6 min
MRT last at 24 h [22]: 103 min
MRT last at 24 h [23]: 204 min
bioavailability [24]: 2.02%
bioavailability [25]: 33.9%
IC50 (Cytochrome P450 2C9): > 10 µM
IC50 (Cytochrome P450 2D6): > 10 µM
IC50 (Cytochrome P450 3A4): > 10 µM
IC50 [26]: 27.7 µM
inhibition [27]: Dde
inhibition [28]: Dde
